According to patent US20190231757A1, “COMBINATION OF SPLEEN TYROSINE KINASE INHIBITORS AND OTHER THERAPEUTIC AGENTS” (Takeda Pharmaceutical Company Limited, priority 2016, published 2019):
Counter-ions that a name gives are not always drawn.

What was measured:
[1] = system: A20 mouse syngeneic B-cell lymphoma; test: Antitumor activity in Balb/c mice bearing A20 syngeneic B-cell lymphoma (Example 1); format: in vivo
[2] = system: OCI-Ly10 human DLBCL xenografts; test: Antitumor activity in SCID mice bearing OCI-Ly10 human DLBCL xenografts, ibrutinib or bendamustine combination (Example 5); format: in vivo, mouse; conditions: Day 21; Compound A 60 mg/kg PO QD; ibrutinib 6 mg/kg PO QD; bendamustine 1 mg/kg IV BIW (6 doses); alone or combined with Compound A; citrate
[3] = system: OCI-Ly10 human lymphoma xenografts; test: Antitumor activity in SCID mice bearing OCI-Ly10 human lymphoma xenografts, bendamustine and rituximab (Example 6); format: in vivo, mouse; conditions: Day 21, citrate
[4] = system: OCI-Ly10 human lymphoma xenografts; test: Antitumor activity in SCID mice bearing OCI-Ly10 human lymphoma xenografts, lenalidomide combination (Example 10); format: in vivo, mouse; conditions: alone or combined
OCI-LY 10 xenografts = test: Antitumor activity in CB17 SCID mice bearing OCI-LY10 xenografts, ABT-199 combination (Example 11); format: in vivo, mouse; conditions: Day 21, alone or combined
Description: Tumor growth inhibition was calculated on Day 21 of the study. The last measurement was taken on Day 46 of the study.
(§1) Experimental design: Female CB17 SCID mice (Charles River Laboratories, about 21 g at treatment start) were inoculated subcutaneously in the flank (cell suspension) with 4.0×10^6 OCI-Ly10 cells. Tumor growth was monitored with vernier calipers. Tumor volume was calculated using the formula V=W^2×L/2, where V=volume, W=width and L=length of the tumor. When the mean tumor volume reached approximately 175 mm^3, the animals were randomized into treatment groups (n=5/group). […] Tumor growth and body weight were measured twice per week. Tumor growth inhibition and body weight change were calculated on Day 21 of treatment.
Statistical analysis: The differences in the tumor growth trends over time between pairs of treatment groups were assessed using linear mixed effects regression models. These models account for the fact that each animal was measured at multiple time points. A separate model was fit for each comparison, and the areas under the curve (AUC) for each treatment group were calculated using the predicted values from the model. The percent decrease in AUC (dAUC) relative to the reference group was then calculated. […] Further details regarding pairwise comparisons are provided in the Example 2.
Drug combinations were assessed for synergy using observed AUC values. The change in AUC relative to the control was calculated for both single agent treatment groups as well as the combination group. The interaction between the two compounds was then assessed by comparing the change in AUC observed in the combination group to the sum of the changes observed in both single agents. The results can be divided into four categories: synergistic, additive, sub-additive, and antagonistic. Further details regarding combination analyses are provided in the Example 2.
Once a final analysis was selected, the tumor measurements observed on a date pre-specified by the researcher (typically the last day of treatment) were analyzed to assess tumor growth inhibition. For this analysis, a T/C ratio was calculated for each animal by dividing the tumor measurement for the given animal by the mean tumor measurement across all control animals. The T/C ratios across a treatment group were compared to the T/C ratios of the control group using a two-tailed Welch's t-test.

[5] = system: WSU-Luc human lymphoma xenografts; test: Antitumor activity in SCID mice bearing WSU-Luc human lymphoma xenografts, ibrutinib combination (Example 12); format: in vivo, mouse; conditions: Day 20, alone or combined
Description: The study ended on Day 20 of dosing.
Tumor growth was monitored with vernier calipers. Tumor volume was calculated using the formula V=W^2×L/2, where V=volume, W=width and L=length of the tumor. When the mean tumor volume reached approximately 190 mm^3, the animals were randomized into treatment groups (n=8/group). […] Tumor growth and body weight were measured twice per week. Tumor growth inhibition and body weight change were calculated on Day 20 of treatment.
Statistical analysis: The differences in the tumor growth trends over time between pairs of treatment groups were assessed using linear mixed effects regression models. These models account for the fact that each animal was measured at multiple time points. A separate model was fit for each comparison, and the areas under the curve (AUC) for each treatment group were calculated using the predicted values from the model. The percent decrease in AUC (dAUC) relative to the reference group was then calculated.
The change in AUC relative to the control was calculated for both single agent treatment groups as well as the combination group. […] The results can be divided into four categories: synergistic, additive, sub-additive, and antagonistic.
For this analysis, a T/C ratio was calculated for each animal by dividing the tumor measurement for the given animal by the mean tumor measurement across all control animals. The T/C ratios across a treatment group were compared to the T/C ratios of the control group using a two-tailed Welch's t-test.

[6] = system: Ly10 human lymphoma xenografts; test: Antitumor activity in SCID mice bearing Ly10 xenografts, rituximab combination (Example 13); format: in vivo, mouse; conditions: alone or combined
[7] = Body weight and tolerability, TMD8 gemcitabine study (Example 8); format: in vivo, mouse; conditions: alone or combined
Description: as §1, with “(Taconic Biosciences; weight” for “(Charles River Laboratories, about 21 g”, “start was 19 g)” for “start)”, “5.0×10^6 TMD8” for “4.0×10^6 OCI-Ly10”, “215” for “175”, “(n=8/group).” for “(n=5/group).”, “14” for “21”

sensitive cell systems = test: Activity in sensitive cell systems; format: cell-based
[8] = system: CT26 mouse syngeneic colon cancer model; test: CT26 mouse syngeneic colon cancer model, prior non-clinical study; format: in vivo; conditions: single agents
[9] = mouse, in vivo, po, 60 mg/kg
[10] = mouse, in vivo, po, 60 mg/kg; remark: listed apart in the source
[11] = Compound A 60 mg/kg PO QD, anti-PD-1 10 mg/kg IP Q4D x3, alone or combined, Day 19
[12] = Compound A 60 mg/kg, ABT-199 12.5 mg/kg
[13] = Compound A 60 mg/kg, ibrutinib 20 mg/kg
[14] = Day 21, Compound A 60 mg/kg PO QD x21, rituximab 1 mg/kg IV QW x3

Cn1cc(-c2nc(N[C@@H]3CCCC[C@@H]3N)c(F)c3c2C(=O)NC3)cn1 [Compound A, 6-((1R,2S)-2-aminocyclohexylamino)-7-fluoro-4-(1-methyl-1H-pyrazol-4-yl)-1H-pyrrolo[3,4-c]pyridine-3 (2H)-one citrate]
Mean Tumor Volume (mm^3) ± SEM ([1]; Compound A 60 mg/kg PO QD 21 d, anti-PD-1 10 mg/kg IP Q4D x3, alone or combined, Day 19): 1,582.9 ± 317.2 mm^3
T/C [1, 11]: 0.85
TGI (%) [1, 11]: 15.3%
dAUC (percent decrease in AUC, pairwise comparison) ([1]; reference 0.5% methylcellulose, Compound A 60 mg/kg, anti-PD-1 10 mg/kg, days >19 excluded): 10.2
TGI [2]: 38.8%
TGI ([3]; Compound A 30 mg/kg PO QD x21, bendamustine 1 mg/kg IV BIW, rituximab 1 mg/kg IV QW x3, alone or combined): 24.2%
TGI ([3]; Compound A 60 mg/kg PO QD x21, 60 mg/kg): 51.1%
TGI ([4]; Day 21, Compound A 60 mg/kg PO QD x21, lenalidomide 10 mg/kg PO QD x21, citrate): 43.6%
ΔAUC ([4]; vs vehicle, Compound A 60 mg/kg, lenalidomide 10 mg/kg): 34.7 (p < 0.001)
TGI (%) (OCI-LY 10 xenografts; Compound A 60 mg/kg PO QD, ABT-199 12.5 mg/kg PO QD): 61.0%
Mean Tumor Volume (mm^3) ± SEM (OCI-LY 10 xenografts; [12]): 408 ± 104.9 mm^3
T/C (OCI-LY 10 xenografts; [12]): 0.39
TGI (%) ([5]; Compound A 60 mg/kg PO QD, ibrutinib 20 mg/kg PO QD): 37.6%
Mean Tumor Volume (mm^3) ± SEM [5, 13]: 680.4 ± 120.1 mm^3
T/C [5, 13]: 0.62
Mean Tumor Volume (mm^3) ± SEM at Day 21 [6, 14]: 217.6 ± 25.6 mm^3
TGI (%) [6, 14]: 76.0%
dAUC ([6]; vs vehicle, Compound A 60 mg/kg, rituximab 1 mg/kg): 122.4
% BW Change (Day Maximum) ([7]; Compound A 60 mg/kg PO QD 14 d, gemcitabine 5 mg/kg IP Q3D x4): 6.4 (12) %
Number of animals removed ([7]; Compound A 60 mg/kg, gemcitabine 5 mg/kg): 0
EC50 (sensitive cell systems): 25 to 400 nM
animals survived to 30 days after the last dose [8]: 20%
increase in mean body weight on Day 14 compared to Day 0 [9]: 1.6 g
Maximum mean % BWL [10]: 0%
